# In patent US8952024B2, “Herbicidal pyrimidone derivatives” (E I du Pont de Nemours and Company, priority 2009, dated 2015):
# What was measured:
# Assay type in all cases: in vivo
# [1] = tested on: soybean (Glycine max); assay: Test B pre-/postemergence plant response
# In short: (§1)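 Pre-em in loam/sand; post-em at 1–4 leaf (2–18 cm) in peat mix. Solvent + surfactant formulation. Greenhouse 13–15 d; visual % control vs untreated, 0–100.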
# [2] = tested on: cocklebur (Xanthium strumarium); assay: Test B pre-/postemergence plant response
# In short: as §1
# [3] = tested on: wheat (Triticum aestivum); assay: Test B pre-/postemergence plant response
# In short: as §1
# [4] = tested on: morningglory (Ipomoea coccinea); assay: Test B pre-/postemergence plant response
# In short: as §1
# [5] = tested on: large crabgrass (Digitaria sanguinalis); assay: Test A pre-/postemergence plant response
# In short: (§2)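 Greenhouse pots of loam/sand received directed preemergence soil sprays or postemergence sprays (plants 2–10 cm, 1–2 leaf stage), compounds formulated in non-phytotoxic solvent with surfactant. Injury was rated visually versus untreated controls after about ten days on a 0 (no effect) to 100 (complete control) scale.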
# [6] = tested on: velvetleaf (Abutilon theophrasti); assay: Test A pre-/postemergence plant response
# In short: as §2
# [7] = tested on: pigweed (Amaranthus retroflexus); assay: Test A pre-/postemergence plant response
# In short: as §2
# [8] = tested on: barnyardgrass (Echinochloa crus-galli); assay: Test A pre-/postemergence plant response
# In short: as §2
# [9] = tested on: giant foxtail (Setaria faberii); assay: Test A pre-/postemergence plant response
# In short: as §2
# [10] = tested on: corn (Zea mays); assay: Test A pre-/postemergence plant response
# In short: as §2
# [11] = tested on: wheat (Triticum aestivum); assay: Test A pre-/postemergence plant response
# In short: as §2
# [12] = tested on: morningglory (Ipomoea spp.); assay: Test A pre-/postemergence plant response
# In short: as §2
# [13] = 250 g ai/ha, Preemergence, 0 to 100 scale
# [14] = Postemergence, 62 g ai/ha, scale 0 (no effect) to 100 (complete control), 13 to 15 days
# [15] = Postemergence, 125 g ai/ha, visual rating after 13 to 15 days, scale 0 (no effect) to 100 (complete control)
# [16] = Preemergence, 31 g ai/ha, scale 0 to 100 (0 no effect, 100 complete control)
# [17] = Preemergence, 125 g ai/ha, 0 to 100 scale
# [18] = Postemergence, 250 g ai/ha, scale 0 to 100
# [19] = Preemergence, 62 g ai/ha, scale 0 to 100, 0 no effect, 100 complete control
# [20] = Postemergence, 125 g ai/ha, visual injury, 0 to 100 scale (0 no effect, 100 complete control), approx. ten days
# [21] = Postemergence, 500 g ai/ha, 0 to 100 scale, 0 = no effect, 100 = complete control, approx. ten days
# [22] = Preemergence, 125 g ai/ha, 0 to 100 scale, 0 = no effect, 100 = complete control
# [23] = Preemergence, 500 g ai/ha, visual injury, 0 to 100 scale (0 no effect, 100 complete control), approx. ten days
# [24] = 31 g ai/ha, postemergence, scale 0 to 100, 0 is no effect, 100 is complete control
# [25] = Postemergence, 250 g ai/ha, scale 0 to 100 (0 no effect, 100 complete control)
compound,measurement,setting,value
Cc1cc(F)ccc1-n1c(-c2ccccc2)ncc(C(=O)C2=C(O)CCCC2=O)c1=O [Compound 48],"Plant response rating, Soybean",[1]; [13],20
same,"Plant response rating, Soybean",[1]; [14],95
same,"Plant response rating, Soybean",[1]; [15],98
same,"Plant response rating, Soybean",[1]; [16],0
same,Soybean plant response rating,[1]; [17],0
same,"Plant response rating, Cocklebur",[2]; [13],85
same,"Plant response rating, Cocklebur","[2]; Postemergence, 31 g ai/ha, scale 0 to 100 (0 no effect, 100 complete control)",95
same,"Plant response rating, Cocklebur",[2]; [14],95
same,"Plant response rating, Cocklebur",[2]; [15],98
same,Cocklebur plant response rating,[2]; [18],98
same,"Plant response rating, Cocklebur",[2]; [19],0
same,Cocklebur plant response rating,[2]; [17],0
same,"Plant response rating, Wheat",[3]; [13],0
same,"Plant response rating, Wheat",[3]; [14],0
same,"Plant response rating, Wheat",[3]; [15],10
same,"Plant response rating, Wheat",[3]; [16],0
same,Wheat plant response rating,[3]; [17],0
same,"Plant response rating, Morningglory",[4]; [13],100
same,"Plant response rating, Morningglory",[4]; [14],70
same,"Plant response rating, Morningglory",[4]; [15],80
same,"Plant response rating, Morningglory",[4]; [16],0
same,"Plant response rating, Morningglory",[4]; [19],100
same,Morningglory plant response rating,[4]; [17],100
same,"Crabgrass, Large plant response rating",[5]; [20],90
same,"Plant response rating, Crabgrass, Large",[5]; [21],100
same,"Plant response rating, Crabgrass, Large",[5]; [22],90
same,"Plant response rating, Crabgrass, Large",[5]; [23],100
same,Velvetleaf plant response rating,[6]; [20],100
same,"Plant response rating, Velvetleaf",[6]; [21],100
same,"Plant response rating, Velvetleaf",[6]; [22],80
same,"Plant response rating, Velvetleaf",[6]; [23],100
same,Pigweed plant response rating,[7]; [20],100
same,"Plant response rating, Pigweed",[7]; [21],100
same,"Plant response rating, Pigweed",[7]; [22],90
same,"Plant response rating, Pigweed",[7]; [23],100
same,Barnyardgrass plant response rating,[8]; [20],80
same,"Plant response rating, Barnyardgrass",[8]; [21],90
same,"Plant response rating, Barnyardgrass",[8]; [22],20
same,"Plant response rating, Barnyardgrass",[8]; [23],100
same,"Foxtail, Giant plant response rating",[9]; [20],90
same,"Plant response rating, Foxtail, Giant",[9]; [21],100
same,"Plant response rating, Foxtail, Giant",[9]; [22],70
same,"Plant response rating, Foxtail, Giant",[9]; [23],90
same,Corn plant response rating,[10]; [20],0
same,"Plant response rating, Corn",[10]; [21],30
same,"Plant response rating, Corn",[10]; [22],0
same,"Plant response rating, Corn",[10]; [23],0
same,Wheat plant response rating,[11]; [20],0
same,"Plant response rating, Wheat",[11]; [21],20
same,"Plant response rating, Wheat",[11]; [22],0
same,"Plant response rating, Wheat",[11]; [23],0
same,Morningglory plant response rating,[12]; [20],90
same,"Plant response rating, Morningglory",[12]; [21],100
same,"Plant response rating, Morningglory",[12]; [22],40
same,"Plant response rating, Morningglory",[12]; [23],80
CCn1c(-c2ccccc2)ncc(C(=O)C2=C(O)CCCC2=O)c1=O [Compound 49],"Plant response rating, Soybean",[1]; [24],55
same,"Plant response rating, Soybean",[1]; [13],85
same,"Plant response rating, Soybean",[1]; [14],65
same,"Plant response rating, Soybean",[1]; [15],85
same,"Plant response rating, Soybean",[1]; [16],0
same,Soybean plant response rating,[1]; [17],85
same,"Plant response rating, Cocklebur",[2]; [24],65
same,"Plant response rating, Cocklebur",[2]; [13],55
same,"Plant response rating, Cocklebur",[2]; [14],80
same,"Plant response rating, Cocklebur",[2]; [15],80
same,Cocklebur plant response rating,[2]; [18],85
same,"Plant response rating, Cocklebur",[2]; [16],0
same,"Plant response rating, Cocklebur",[2]; [19],20
same,Cocklebur plant response rating,[2]; [17],45
same,"Plant response rating, Wheat",[3]; [24],0
same,"Plant response rating, Wheat",[3]; [13],0
same,"Plant response rating, Wheat",[3]; [14],5
same,"Plant response rating, Wheat",[3]; [15],15
same,"Plant response rating, Wheat",[3]; [16],0
same,Wheat plant response rating,[3]; [17],0
same,"Plant response rating, Morningglory",[4]; [24],65
same,"Plant response rating, Morningglory",[4]; [13],85
same,"Plant response rating, Morningglory",[4]; [14],80
same,"Plant response rating, Morningglory",[4]; [15],80
same,"Plant response rating, Morningglory",[4]; [16],45
same,"Plant response rating, Morningglory",[4]; [19],80
same,Morningglory plant response rating,[4]; [17],80
same,"Crabgrass, Large plant response rating",[5]; [20],90
same,"Plant response rating, Crabgrass, Large",[5]; [21],90
same,"Plant response rating, Crabgrass, Large",[5]; [22],60
same,"Plant response rating, Crabgrass, Large",[5]; [23],90
same,Velvetleaf plant response rating,[6]; [20],100
same,"Plant response rating, Velvetleaf",[6]; [21],100
same,"Plant response rating, Velvetleaf",[6]; [22],80
same,"Plant response rating, Velvetleaf",[6]; [23],90
same,Pigweed plant response rating,[7]; [20],100
same,"Plant response rating, Pigweed",[7]; [21],100
same,"Plant response rating, Pigweed",[7]; [22],80
same,"Plant response rating, Pigweed",[7]; [23],90
same,Barnyardgrass plant response rating,[8]; [20],60
same,"Plant response rating, Barnyardgrass",[8]; [21],90
same,"Plant response rating, Barnyardgrass",[8]; [22],20
same,"Plant response rating, Barnyardgrass",[8]; [23],60
same,"Foxtail, Giant plant response rating",[9]; [20],50
same,"Plant response rating, Foxtail, Giant",[9]; [21],80
same,"Plant response rating, Foxtail, Giant",[9]; [22],20
same,"Plant response rating, Foxtail, Giant",[9]; [23],50
same,Corn plant response rating,[10]; [20],0
same,"Plant response rating, Corn",[10]; [21],20
same,"Plant response rating, Corn",[10]; [22],0
same,"Plant response rating, Corn",[10]; [23],0
same,Wheat plant response rating,[11]; [20],0
same,"Plant response rating, Wheat",[11]; [21],0
same,"Plant response rating, Wheat",[11]; [22],0
same,"Plant response rating, Wheat",[11]; [23],0
same,Morningglory plant response rating,[12]; [20],100
same,"Plant response rating, Morningglory",[12]; [21],100
same,"Plant response rating, Morningglory",[12]; [22],30
same,"Plant response rating, Morningglory",[12]; [23],80
CCCn1c(-c2ccccc2)ncc(C(=O)C2=C(O)CCCC2=O)c1=O [Compound 50],"Plant response rating, Soybean",[1]; [24],85
same,"Plant response rating, Soybean",[1]; [13],0
same,"Plant response rating, Soybean",[1]; [14],85
same,"Plant response rating, Soybean",[1]; [15],95
same,"Plant response rating, Soybean",[1]; [25],95
same,"Plant response rating, Soybean",[1]; [16],0
same,"Plant response rating, Cocklebur",[2]; [24],85
same,"Plant response rating, Cocklebur",[2]; [14],85
same,"Plant response rating, Cocklebur",[2]; [15],90
same,"Plant response rating, Cocklebur",[2]; [25],90
same,"Plant response rating, Cocklebur",[2]; [19],75
same,Cocklebur plant response rating,[2]; [17],75
same,"Plant response rating, Wheat",[3]; [24],0
same,"Plant response rating, Wheat",[3]; [13],0
same,"Plant response rating, Wheat",[3]; [14],5
same,"Plant response rating, Wheat",[3]; [15],5
same,"Plant response rating, Wheat",[3]; [25],15
same,"Plant response rating, Wheat",[3]; [16],0
same,Wheat plant response rating,[3]; [17],0
same,"Plant response rating, Morningglory",[4]; [24],10
same,"Plant response rating, Morningglory",[4]; [13],55
same,"Plant response rating, Morningglory",[4]; [14],25
same,"Plant response rating, Morningglory",[4]; [15],70
same,"Plant response rating, Morningglory",[4]; [25],80
same,"Plant response rating, Morningglory",[4]; [16],0
same,"Plant response rating, Morningglory",[4]; [19],0
same,"Crabgrass, Large plant response rating",[5]; [20],90
same,"Plant response rating, Crabgrass, Large",[5]; [21],90
same,"Plant response rating, Crabgrass, Large",[5]; [22],90
same,"Plant response rating, Crabgrass, Large",[5]; [23],100
same,Velvetleaf plant response rating,[6]; [20],100
same,"Plant response rating, Velvetleaf",[6]; [21],100
same,"Plant response rating, Velvetleaf",[6]; [22],80
same,"Plant response rating, Velvetleaf",[6]; [23],90
same,Pigweed plant response rating,[7]; [20],100
same,"Plant response rating, Pigweed",[7]; [21],100
same,"Plant response rating, Pigweed",[7]; [22],90
same,"Plant response rating, Pigweed",[7]; [23],100
same,Barnyardgrass plant response rating,[8]; [20],90
same,"Plant response rating, Barnyardgrass",[8]; [21],100
same,"Plant response rating, Barnyardgrass",[8]; [22],50
same,"Plant response rating, Barnyardgrass",[8]; [23],90
same,"Foxtail, Giant plant response rating",[9]; [20],90
same,"Plant response rating, Foxtail, Giant",[9]; [21],90
same,"Plant response rating, Foxtail, Giant",[9]; [22],50
same,"Plant response rating, Foxtail, Giant",[9]; [23],80
same,Corn plant response rating,[10]; [20],0
same,"Plant response rating, Corn",[10]; [21],30
same,"Plant response rating, Corn",[10]; [22],0
same,"Plant response rating, Corn",[10]; [23],0
same,Wheat plant response rating,[11]; [20],0
same,"Plant response rating, Wheat",[11]; [21],0
same,"Plant response rating, Wheat",[11]; [22],0
same,"Plant response rating, Wheat",[11]; [23],0
same,Morningglory plant response rating,[12]; [20],80
same,"Plant response rating, Morningglory",[12]; [21],80
same,"Plant response rating, Morningglory",[12]; [22],40
same,"Plant response rating, Morningglory",[12]; [23],80
